This note sets out measurements from patent US20260306453A1, “FORMULATIONS CONTAINING TRYPTAMINE DERIVATIVES AND USES THEREOF” (priority 2023, published 2026).

The subject of one series is mice. Briefly: Reduction in alcohol consumption. Type of series: in vivo, mouse. The settings on record: addicted mice. From the text: In order to test for the ability to curb alcohol consumption, mice were given 8-20%/alcohol ab libitum for two weeks. The results of alcohol consumption were monitored over two weeks after daily dosing of test compound in relation to positive control (4-AcO-DMT). Further studies extended the experiment to 60 days for three different doses while only dosing the mice every 3 days.

Series [1] relates to cytokine interleukin 6 (IL-6). Briefly: IL-6 quantification in HT22 mouse hippocampal neuronal cells. Type of series: cell-based. The settings on record: LPS stressed, HBr salt, 24 hours. From the text:
(§1) For neuroplasticity, brain-derived neurotrophic factor (BDNF; FIGS. 3B1 and 3B2) and for inflammation, cytokine interleukin 6 (IL-6; FIGS. 3A1 and 3A2) and TNFα (FIGS. 3C1 and 3C2), were quantified with and without proinflammatory treatment of lipopolysaccharide (LPS). LPS-induced inflammation is a model for neuroinflammation similar to what is seen in patients with neurodegenerative disorders. […] IL-6 is elevated in patients with frontotemporal dementias and other neurodegenerative disorders and especially in patients with disinhibition.

Another series relates to TNFα. Briefly: TNFα quantification in HT22 mouse hippocampal neuronal cells. The following applies: LPS stressed, HBr salt, 24 hours. Type of series: cell-based.
Source text: as §1

Series [2] concerns brain-derived neurotrophic factor (BDNF). Briefly: BDNF quantification in HT22 mouse hippocampal neuronal cells. Type of series: cell-based. The following applies: HT22 control cells (no LPS); HBr salt; 24 hours.
Source text: as §1

For series [3], the system named is metabotropic glutamate receptor 2 (mGlu2). Briefly: Brain tissue mGlu2 protein expression in prefrontal cortex after in vivo treatment. Further details: species or system mouse. The settings on record: male C57BL/6J mice, 25 mg/kg daily 18 days. From the text:
The expression of metabotropic glutamate receptor 2 (mGlu2) in the prefrontal cortex was quantified following in vivo mouse studies. Regulation of the metabotropic glutamate receptor 2 (mGlu2) levels in alcohol seeking rats can reduce relapse behavior.

The format of series [4] is in vivo. The settings on record: rat, IV 1 mg/kg of 2-Br-4-AcO-DMT * HBr, 4 h, individual rat. As for the experimental part: (§2) The rat PK (FIG. 6) was assessed with an oral dose of 10 mg/kg and intravenously at 1 mg/kg. […] The PK and brain concentrations were assessed in cohorts of 3 […] for each dosing group and between the plasma vs brain concentrations. For 10 mg/kg oral dosing, the PK parameters are outlined in Table 16 below.
The brain vs. plasma concentrations from oral and IV doses of 2-Br-4-ACO-DMT*HBr are listed in Table 18 via detection of active 2-Br-4-OH-DMT.

Series [5] is classed as in vivo. The following applies: rat. As for the experimental part: as §2
1 mg/kg IV dosing, the PK parameters are outlined in Table 17.

Where “and” joins values, the source holds several entries; their conditions need not be identical. Identical values can stand only once. Like-named read-outs stand apart in the source and are kept apart here.

As for `CC(=O)Oc1cccc2[nH]c(Br)c(CCN(C)C)c12` [drawing 37], the “Alcohol Consumption, effective dose range” value with mice lay in the range of 5 to 40 mg/kg.

Consider `CC(=O)Oc1cccc2[nH]c(Br)c(CCN(C)C)c12` [2-Br-4-AcO-DMT, 2-bromo-3-(2-(dimethylamino)ethyl)-1H-indol-4-yl acetate], for which the IL-6 level result in series [1] is “reduces IL-6”. Also, the TNFα level entry with TNFα was “reduces IL-6 and TNFα in the stressed LPS cells”. Besides, the BDNF level entry in series [2] was “increases neuroplasticity marker BDNF in the control cells”. The “mGluR2 expression reduction compared with psilacetin” value in series [3] (n=5-6, relative to actin, normalized to vehicle) is recorded as “exceeding the effect of psilacetin”. Also, the “mGluR2 expression, unstressed mice” value in series [3] (no-stress, prefrontal cortex) is recorded as “reduced expression of mGluR2”. For the same compound, the “mGluR2 expression, stressed mice” value in series [3] (tube restraint, prefrontal cortex) was “reduced expression of mGluR2”.

As to `CN(C)CCc1c(Br)[nH]c2cccc(O)c12` [2-Br-4-OH-DMT, 2-bromo-3-(2-(dimethylamino)ethyl)-1H-indol-4-ol], the “Plasma Concentration” value in series [4] is listed as “BLOQ”. Further, the “AUC Extr” value in series [5] (1 mg/kg IV of 2-Br-4-AcO-DMT * HBr, individual rat, 1 mg/kg) is 7.66% and 4.06% and 4.54%; in series [5] (1 mg/kg IV of 2-Br-4-AcO-DMT * HBr, mean of 3 rats), 5.42%; in series [5] (10 mg/kg PO of 2-Br-4-AcO-DMT * HBr, mean of 3 rats), 4.50%.
